Measurements taken from article PMC13270519, “Cytochrome P450-Mediated Metabolism of Antimycobacterial Nα‑Aroyl‑N‑aryl-phenylalanine Amides” (ACS Infectious Diseases, 2026).

Assay: Metabolic stability in mouse liver microsomes (t1/2)
Format: in vitro ADME
Conditions: NADPH, 37 °C
Procedure: Microsomal incubations were carried out in 96-well plates in 3 aliquots of 30 μL each (one for each time point). Liver microsomal incubation medium comprised phosphate buffer (100 mM, pH 7.4), MgCl2 (3 mM), NADPH (3 mM), glucose-6-phosphate (5.3 mM), and glucose-6-phosphate dehydrogenase (0.67 units/mL) with 0.42 mg of liver microsomal protein per mL. In the control reactions, the NADPH-cofactor system was substituted with phosphate buffer. Test compounds (2 μM, final solvent concentration 1.6%) were incubated with microsomes at 37 °C, shaking at 100 rpm. Three time points over 7 min were analyzed. The reactions were stopped by adding 5 volumes of methanol with internal standard to incubation aliquots followed by protein sedimentation by centrifuging at 6,000 rpm for 20 min. Each reaction was performed in duplicate. Supernatants were analyzed using the HPLC system coupled with a tandem mass spectrometer and high-resolution mass spectrometer.
The incubation was stopped after defined time points by precipitation of aliquots of enzymes with 2 volumes of cold internal standard solution (15 nM diphenhydramine in 10% methanol/acetonitrile). […] The remaining test compound at the different time points was analyzed by HPLC-MS/MS (Vanquish Flex coupled to a TSQ Altis Plus, Thermo Fisher, Dreieich, Germany) and used to determine half-life (t 1/2).

| Compound | Mouse liver microsomes t1/2 [min] |
| --- | --- |
| O=C(N[C@H](Cc1ccccc1)C(=O)Nc1ccccc1N1CCS(=O)(=O)CC1)c1ccccc1F [AAP-SO2] | 1.8 |
| O=C(N[C@H](Cc1ccccc1)C(=O)Nc1ccccc1N1CCOCC1)c1cccs1 [MMV688845] | 0.9 |
